Reference: US20230062612A1, “SAFETY SWITCHES FOR REGULATION OF GENE EXPRESSION” (Sana Biotechnology, Inc., priority 2020, published 2023)

Key:
Assay type in all cases: cell-based
[1] = tested on: EFS-CD-CD47 transduced cells; test: Cytosine deaminase safety switch: killing of transduced iPSCs by 5-fluorocytosine; settings: 0.01-1000 μM 5-FC; increasing concentrations; FIG. 16 (middle)
Text: To assess the ability of cytosine deaminase to induce cell death in an […] manner, an EFS-cytosine deaminase (CD)-CD47 bicistronic cassette was transduced into wild type iPSCs by lentiviral viral transduction (see FIG. 16, top). In this cassette, a nucleic acid encoding CD is located upstream of a nucleic acid encoding CD47. A 2A sequence located between the CD and CD47 nucleic acids to ensure the two proteins are separate following translation. An EFS promoter controls expression of CD and CD47.
EFS-CD-CD47 transduced cells and control EFS-CD transduced cells were contacted with 0.01-1000 μM concentrations of 5-fluorocytosine (5-FC) (“5FC”). Cytosine deaminase deaminates 5-FC to toxic 5-fluorouracil (5-FU), thereby killing the cells.

[2] = tested on: human CD47 fused to SMASH tag; test: SMASH degron CD47 degradation in EFS-SMASH-CD47 transduced iPSCs, flow cytometry; settings: 0-10 μM asunaprevir for 48 hours, increasing doses
Text: Small-molecule assisted shutoff, or SMASH, is a system using the hepatitis C virus (HCV) nonstructural protein 3 (NS3) protease and elements in the NS4A protein to effectively shut off expression of a CD47 protein fused to a SMASH-tag with clinically tested HCV protease inhibitors (FIG. 2). In the absence of protease inhibitor (asunaprevir), a cryptic degron sequence is excised, leading to an unmodified gene product. By addition of asunaprevir, the NS3 protease is inhibited, leading to the degradation of newly synthesized CD47 proteins fused to the degron sequence.
CD47 expression analysis: After incubation, cells are washed and stained with an anti-CD47 antibody conjugated to Alexa-647 (Biolegend) to detect surface expression of CD47. More specifically, 1×10^6 cells are harvested and resuspended in 100 μl cell staining-buffer (PBS, 0.1% BSA, 0.1% sodium azide) and incubated with 5 μl Alexa-Fluor 647 labelled anti-CD47 antibody for 30 min on ice. Cells are washed in cell staining buffer and subsequently analyzed by flow cytometry. […]

human CD47 [3] = test: CD47 expression in control EFS-CD47 transduced and wild-type iPSCs with asunaprevir; settings: for expression of CD47: 0-10 μM asunaprevir for 48 hours
Procedure: CD47 expression analysis: After incubation, cells are washed and stained with an anti-CD47 antibody conjugated to Alexa-647 (Biolegend) to detect surface expression of CD47. More specifically, 1×10^6 cells are harvested and resuspended in 100 μl cell staining-buffer (PBS, 0.1% BSA, 0.1% sodium azide) and incubated with 5 μl Alexa-Fluor 647 labelled anti-CD47 antibody for 30 min on ice. Cells are washed in cell staining buffer and subsequently analyzed by flow cytometry.
To assess the ability of the SMASH system to promote CD47 degradation, expression constructs were made containing the following expression cassettes: a) an EF1 a core promoter (EFS) operably linked to a human CD47 gene fused to a nucleic acid encoding a SMASH tag (EFS-CD47-SMASH, see FIG. 4, top); and b) a control containing the EFS promoter operably linked to the human CD47 gene alone (EFS-CD47). iPSCs were transduced with either the EFS-SMASH-CD47 expression cassette or control EFS-CD47 expression cassette by lentiviral transduction. The EFS-SMASH-CD47 transduced cells, EFS-CD47 transduced cells, and wild-type control cells were incubated in the presence of 0-10 μM of asunaprevir for 48 hours and CD47 expression was assessed using flow cytometry, as explained above.

human CD47 [4] = test: CD47 expression in control EFS-CD47 transduced and wild-type iPSCs with Shield-1
Text: To assess the ability of the LID system to promote CD47 degradation, expression constructs were made containing the following expression cassettes: a) an EF1a core promoter (EFS) operably linked to a human CD47 gene fused to a nucleic acid encoding the LID degron domain (EFS-CD47-LID, see FIG. 6, top); and b) a control containing the EFS promoter operable linked to the human CD47 gene alone (EFS-CD47). iPSCs were transduced with either the EFS-CD47-LID expression cassette or control EFS-CD47 expression cassette by lentiviral transduction.
(§1) The EFS-CD47-LID transduced cells, EFS-CD47 transduced cells, and wild-type control cells were incubated in the presence of 0-1,000 nM of Shield-1 for 24 hours and CD47 expression was assessed using flow cytometry.

[5] = tested on: human CD47 fused to LID degron domain; test: LID degron CD47 degradation in EFS-CD47-LID transduced iPSCs, flow cytometry; settings: 0-1,000 nM Shield-1 for 24 hours, increasing doses
Text: In the LID system, the protein of interest (POI e.g., CD47) is fused to a LID degron domain (also referred to as “LID domain” or “LID degron”). The LID degron domain includes the FK506- and rapamycin-binding protein (FKBP) and a peptide degron (e.g., TRGVEEVAEGVVLLRRRGN) fused to the C-terminus of the FKBP (FIG. 5). […] The peptide degron is capable of binding to the FKBP active site and is not detected by cellular degradation proteins when sequestered in the active site, thus rendering it a cryptic degron. In the absence of Shield-1, a small molecule, the POI-LID fusion protein is stable. When present, Shield-1 binds tightly to FKBP, thereby displacing the peptide degron and inducing rapid degradation of the LID and any fused partner protein (e.g., CD47). […]
as §1

## Nc1nc(=O)[nH]cc1F [5-FC, 5-fluorocytosine]
[1]
  killing of CD47 expressing EFS-CD-CD47 transduced cells: observed

## C=C[C@@H]1C[C@]1(NC(=O)[C@@H]1C[C@@H](Oc2ncc(OC)c3ccc(Cl)cc23)CN1C(=O)[C@@H](NC(=O)OC(C)(C)C)C(C)(C)C)C(=O)NS(=O)(=O)C1CC1 [asunaprevir]
[2]
  reduction in CD47 expression: ≥ 50%
Human CD47 [3]; EFS-CD47 ("CD47 only") cells without SMASH
  expression of CD47: generally unaltered
Human CD47 [3]; EFS-CD47 cells, no significant CD47 knockdown, 0-10 μM for 48 hours
  off-target effects on CD47 expression: no off-target effects
Human CD47 [3]; wildtype ("WT") cells
  expression of CD47: remained at the baseline

## CC[C@H](C(=O)N1CCCC[C@H]1C(=O)O[C@H](CCc1ccc(OC)c(OC)c1)c1cccc(OCCN2CCOCC2)c1)c1cc(OC)c(OC)c(OC)c1 [Shield-1]
Human CD47 [4]; EFS-CD47 ("CD47 only") cells without LID, 0-1,000 nM for 24 hours
  expression of CD47: generally unaltered
Human CD47 [4]; EFS-CD47 cells, no significant CD47 knockdown, 0-1,000 nM for 24 hours
  off-target effects on CD47 expression: no off-target effects
Human CD47 [4]; wildtype ("WT") cells, 0-1,000 nM Shield-1 for 24 hours
  expression of CD47: remained at the baseline
[5]
  reduction in CD47 expression: ≥ 50%
